As a reminder, the IC50 is the point on the concentration scale where inhibition reaches its midpoint. A higher IC50 goes with weaker potency in that assay.

From patent publication US20250295636A1, “METHOD FOR PREPARING 4-[5-[BIS(2-CHLOROETHYL)AMINO]-1-METHYL-1H-BENZO[D]IMIDAZOL-2-YL]BUTYRIC ACID ALKYL ESTERS AND FORMYLATED DERIVATIVES” (HERAEUS PRECIOUS METALS GMBH & CO. KG, priority 2022, published 2025) come the findings set out here.

Format in all cases: cell-based
For one assay, the system named is Calu-6. Nature of the assay: MTS cell proliferation assay, Calu-6 (lung). The settings on record: Homo sapiens, 72 hours at 37° C., 490 nm. How it is done:
(§1) Selected cell lines were incubated for 72 hours at 37° C. with different concentrations of 4-[5-[bis(2-chloroethyl)amino]-4-formyl-1-methyl-1H-benzo[d]imidazol-2-yl]butyric acid (concentrations ranging from 1.5 μmol to 5 mmol per liter). The cells were then incubated with MTS solution (Promega) for 1 hour, and the effects of 4-[5-[bis(2-chloroethyl)amino]-4-formyl-1-methyl-1H-benzo[d]imidazol-2-yl]butyric acid on cell proliferation were determined colorimetrically at 490 nm. Cell growth was expressed as a percentage of the corresponding control (0.5 wt. % dimethyl sulfoxide in water).
On the technique in general: Tetrazolium assays rely on reduction of a dye to a coloured formazan, in cell work by metabolically active cells.

The subject of another assay is A375. Nature of the assay: MTS cell proliferation assay, A375 (skin). The settings on record: Homo sapiens, A-375, 72 hours at 37° C., 490 nm. Here is the method: as §1
For assay [1], the system named is skin cancer, kidney cancer, lung cancer, brain tumors and pancreatic cancer. Nature of the assay: cancer-cell-killing or cancer-cell-growth-inhibiting effect (summary of example 3). As to conditions: summary statement; compound and its pharmaceutically acceptable salts; concentration at which 50% of the cancer cells are killed. Here is the method: IC50 stands for “inhibition concentration,” at which 50% of the cancer cells are killed.
as §1

In the next assay the test system is BxPC-3. Put plainly: MTS cell proliferation assay, BxPC-3 (pancreas). The settings on record: Homo sapiens, 72 hours at 37° C., 490 nm. How it is done: as §1
For a further assay, the system named is U87MG. Put plainly: MTS cell proliferation assay, U87MG (brain). The settings on record: Homo sapiens, U-87 MG, 72 hours at 37° C., 490 nm. How it is done: as §1
The subject of another assay is Caki-1. Nature of the assay: MTS cell proliferation assay, Caki-1 (kidneys). As to conditions: Homo sapiens, 72 hours at 37° C., 490 nm. Here is the method:
as §1

With `Cn1c(CCCC(=O)O)nc2c(C=O)c(N(CCCl)CCCl)ccc21` [4-[5-[bis(2-chloroethyl)amino]-4-formyl-1-methyl-1H-benzo[d]imidazol-2-yl]butyric acid], the IC50 is 1300 µM in the assay on Calu-6; 1300 µM with A375; 740 µM with BxPC-3; 2900 µM in the assay on U87MG; 1600 µM in the assay on Caki-1. The “low IC50 concentration range” value in assay [1] was “one hundred”.
